Measurements published in paper PMC6982741, “Design, Synthesis and Study of Nitrogen Monoxide Donors as Potent Hypolipidaemic and Anti-Inflammatory Agents” (Molecules, 2019).
Read-outs that look alike come from different tables or passages of the source. Marks after values point to notes of the source that are not given here.

What was measured:
hyperlipidaemic rats = assay: Triton WR1339 (tyloxapol) induced hyperlipidaemia in rats; assay type: in vivo, Wistar rats; conditions: Rattus norvegicus, ip, 24 h, 150 μmol/kg i.p., tyloxapol 200 mg/kg i.p., plasma after 24 h
Description: The pleiotropic effects of statins, used as hypolipidaemic drugs, include antioxidant ability and direct increase of eNOS activity, in addition to inhibition of 3-hydroxy-3-methylglutaryl coenzyme A (HMG-CoA) reductase. […] The systemic administration of Triton-WR1339 (tyloxapol) to rats induces a biphasic elevation of plasma cholesterol, atherogenic VLDL cholesterol and LDL cholesterol, as well as triglyceride levels. […] Agents shown to be active in phase I are considered to interfere with cholesterol biosynthesis.
κ-Carrageenan and lipoxygenase type I-B from soybean were purchased from Sigma (St. Louis, MO, U.S.A.). For the in vivo experiments, Wistar rats (180–220 g, 3–4 months old) were kept in the Centre of the School of Veterinary Medicine (EL54 BIO42), Aristotelian University of Thessaloniki, which is registered by the official state veterinary authorities (presidential degree 56/2013, in harmonization with the European Directive 2010/63/EEC). The experimental protocols were approved by the Animal Ethics Committee of the Prefecture of Central Macedonia (no. 270079/2500).
Hyperlipidaemia was induced by the i.p. administration of Triton WR 1339 (200 mg/kg) to rats. […] Blood was taken from the aorta after 24 h, for the determination of plasma total cholesterol, LDL-cholesterol and triglyceride concentrations, using commercial kits.

[1] = In vitro nitrogen monoxide release (Griess reagent); conditions: DMSO/water 7/3, overnight, cadmium
Protocol: Due to their poor aqueous solubility, compounds 1, 3-7 and 9 were dissolved in 7/3 (v/v) mixture of DMSO/water at various concentrations and incubated overnight at room temperature in the presence of cadmium. S-nitroso-N-acetylpenicillamine (SNAP) was dissolved either in DMSO/water 7/3 or in water and treated as above.
Aliquots were taken from each sample and added to an equal volume of N-naphthylaminoethylamine (0.2%) and sulfanilamide (2%) solution in 3 N hydrochloric acid (Griess reagent). Appropriate sodium nitrite solutions in the same DMSO/water mixture were used for the construction of the standard curve and values were identical to those obtained with aqueous solutions. Nitric oxide release was estimated spectrophotometrically (540 nm).

soybean lipoxygenase 1-B = biological target: T1, soybean lipoxygenase 1-B (Glycine max, UniProt P08170); assay: In vitro soybean lipoxygenase inhibition, linoleate as substrate; assay type: biochemical; conditions: sodium linoleate 100 μM; after 7 min of incubation; pH 9.0, 28 °C
T1 construct: purchased Sigma (St. Louis, MO, U.S.A.)
T1 sequence (P08170 1-839): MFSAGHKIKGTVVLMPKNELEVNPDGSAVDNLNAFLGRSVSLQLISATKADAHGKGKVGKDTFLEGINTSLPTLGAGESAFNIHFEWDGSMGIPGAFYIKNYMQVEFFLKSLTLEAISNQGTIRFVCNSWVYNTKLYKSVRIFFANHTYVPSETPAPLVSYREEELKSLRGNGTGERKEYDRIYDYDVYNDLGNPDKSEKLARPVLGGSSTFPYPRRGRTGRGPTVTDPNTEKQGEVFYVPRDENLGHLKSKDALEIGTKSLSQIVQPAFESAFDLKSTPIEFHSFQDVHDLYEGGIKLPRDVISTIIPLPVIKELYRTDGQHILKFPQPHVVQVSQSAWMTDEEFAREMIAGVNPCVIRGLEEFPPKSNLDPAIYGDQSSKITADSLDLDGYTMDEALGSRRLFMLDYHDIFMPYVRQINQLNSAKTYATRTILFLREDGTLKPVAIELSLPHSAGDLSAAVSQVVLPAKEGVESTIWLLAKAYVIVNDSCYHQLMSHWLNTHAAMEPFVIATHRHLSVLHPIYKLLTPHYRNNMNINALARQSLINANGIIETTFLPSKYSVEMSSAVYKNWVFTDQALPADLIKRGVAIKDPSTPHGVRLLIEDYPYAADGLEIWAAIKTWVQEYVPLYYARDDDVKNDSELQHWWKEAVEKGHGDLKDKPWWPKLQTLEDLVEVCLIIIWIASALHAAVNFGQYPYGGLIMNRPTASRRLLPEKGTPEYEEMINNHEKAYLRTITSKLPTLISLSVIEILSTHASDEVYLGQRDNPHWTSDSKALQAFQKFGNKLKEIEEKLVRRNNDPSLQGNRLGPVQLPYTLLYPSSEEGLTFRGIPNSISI
Protocol: The reaction mixture contained the examined compounds (in absolute ethanol, 1–300 μM), soybean lipoxygenase (in saline, 250 u/mL) and sodium linoleate (100 μM), in Tris–HCl buffer, pH 9.0. The reaction was monitored for 7 min at 28 °C, recording the absorbance at 234 nm. […]

[2] = Interaction with the stable radical DPPH; conditions: DPPH 200 μΜ, after 30 min
Protocol: (§1) The antioxidant activity of compounds was estimated by the inhibition of rat hepatic microsomal membrane lipid peroxidation, induced by Fe^+2/ascorbate, estimated as 2-thiobarbituric acid (TBA) reactive material, and by their interaction with the N-centred 1,1-diphenyl-2-picrylhydrazyl (DPPH) stable free radical. […] The percent interaction with DPPH and the IC50 values of compounds 7–9 on rat hepatic microsomal membrane lipid peroxidation, after 45 min of incubation is shown in Table 4.
Compounds (in absolute ethanol, final concentrations 25–200 μM) were added to an ethanolic solution of DPPH (final concentration 200 μM) at room temperature (22 ± 2 °C). Absorbance (517 nm) was recorded after 30 min.

[3] = tested on: rat hepatic microsomal membrane lipid peroxidation; assay: Fe2+/ascorbate induced lipid peroxidation, TBA reactive material; assay type: biochemical; conditions: for IC50: after 45 min of incubation, read-out: Inhibition of Lipid Peroxidation IC50
Protocol: as §1
The peroxidation of heat-inactivated (90°, 90 s) rat liver microsomal fraction was induced by ascorbic acid (0.2 mM) and ferrous sulphate (10 μΜ). The studied compounds, in dimethylsulfoxide, were added at concentrations 1 μM–1 mM. Aliquots were taken from the incubation mixture (37 °C) for 45 min. Lipid peroxidation was assessed spectrophotometrically (535/600 nm) as 2-thiobarbituric acid reactive material. All compounds and solvents were found not to interfere with the assay.

[4] = tested on: carrageenan-induced rat paw oedema; assay: Carrageenan-induced rat paw oedema; assay type: in vivo, Wistar rats; conditions: 0.15 mmol/kg i.p., oedema after 3.5 h, vs carrageenan-only controls; for inhibition in vivo at 150 µmol/kg: Rattus norvegicus, ip, read-out: % Oedema Reduction
Protocol: The carrageenan-induced paw oedema is a well-known and widely used model of acute inflammation. The response to carrageenan inflammation may be divided into three phases. In the first phase (after 1.5 h), histamine and serotonin are released, the second phase (1.5–2.5 h after carrageenan administration) is mediated by kinins, whereas, in the third phase, more than two hours post administration, neutrophil infiltration, prostaglandin production and release of pro-inflammatory cytokines are involved. In this work, oedema was measured 3.5 h post injection.
κ-Carrageenan and lipoxygenase type I-B from soybean were purchased from Sigma (St. Louis, MO, U.S.A.).
The tested compounds (in water with a few drops of Tween 80) were given i.p. (0.15 mmol/kg) to rats, just after the i.d. injection of 0.1 mL of an aqueous carrageenan solution (1% w/v) in the hind paw of rats. The produced oedema, after 3.5 h, was estimated as paw weight increase.

[5] = read-out: % Reduction LDL-C (LDL cholesterol)
[6] = read-out: % Reduction TC (total cholesterol)
[7] = read-out: % Reduction TG (triglycerides)

| IC50 (soybean lipoxygenase 1-B) [µM] | IC50 [3] [µM] | melting point [°C] | SMILES | inhibition in vivo at 150 µmol/kg (hyperlipidaemic rats; [5]) [%] | inhibition in vivo at 150 µmol/kg (hyperlipidaemic rats; [6]) [%] | inhibition in vivo at 150 µmol/kg (hyperlipidaemic rats; [7]) [%] | NO Release ([1]; compound 31.25 μM) [μΜ] | NO Release ([1]; compound 62.5 μM) [μΜ] | NO Release ([1]; compound 125 μM) [μΜ] | NO Release ([1]; compound 250 μM) [μΜ] | NO Release ([1]; compound 500 μM) [μΜ] | Percent Interaction with DPPH ([2]; compound 50 μΜ) [%] | Percent Interaction with DPPH ([2]; compound 100 μΜ) [%] | Percent Interaction with DPPH ([2]; compound 200 μΜ) [%] | lag period in time course of lipid peroxidation ([3]; various concentrations, Figure 2) | inhibition in vivo at 150 µmol/kg [4] [%] | % Oedema Reduction [4] |
| --- | --- | --- | --- | --- | --- | --- | --- | --- | --- | --- | --- | --- | --- | --- | --- | --- | --- |
| 120 | 2.3 | 95 to 97 | Cc1c(C)c2c(c(C)c1O)CCC(C)(C(=O)OCCO[N+](=O)[O-])O2 (racemic) [Compound 9, (±)-2-(Nitrooxy)ethyl 6-hydroxy-2,5,7,8-tetramethylchroman-2-carboxylate] | 65 | 55.4 | 30 | 3 | 10 | 23 | 49 | 93 | 55 | 90 | 92 | about 20 min | 57 |  |
| 107 |  | 83 to 84 | COc1ccc2c(c1)c(CC(=O)OCCO[N+](=O)[O-])c(C)n2C(=O)c1ccc(Cl)cc1 [Compound 3, 2-(Nitrooxy)ethyl 2-(1-(4-chlorobenzoyl)-5-methoxy-2-methyl-1H-indol-3-yl)acetate] | 62.3 | 71.7 | 31.8 | 5 | 13 | 28 | 58 | 102 |  |  |  |  | 29 |  |
| 44 | 41 | 80 | CC(C)(C)c1cc(/C=C/C(=O)OCCO[N+](=O)[O-])cc(C(C)(C)C)c1O [Compound 7, (E)-2-(Nitrooxy)ethyl 3-(3,5-di-tert-butyl-4-hydroxyphenyl)acrylate] | 60.6 | 66 | 45.7 | 2 | 6.5 | 17 | 38 | 77 | 21 | 49 | 87 |  | 55 | 55 ** % |
| 10.5 | 150 | 156 to 157 | CC(C)(C)c1cc(/C=C/C(=O)OCCc2ccc([N+](=O)[O-])cc2)cc(C(C)(C)C)c1O [Compound 8, (E)-4-Nitrophenethyl 3-(3,5-di-tert-butyl-4-hydroxyphenyl)acrylate] |  |  |  |  |  |  |  |  | 23 | 57 | 88 |  | 51 | 51 ** % |
